The source of these data is patent US8633245B2, “PAI-1 inhibitor” (Institute of Medicinal Molecular Design, Inc., priority 2008, dated 2014).

Molecules are shown by their SMILES. pIC50: −log10 of the molar value. Bounds are passed on as bounds.

For one assay, the target named is T1, recombinant rat PAI-1 (Rattus norvegicus, UniProt P20961).
T1 construct: purchased Molecular Innovations, Inc
T1 sequence (P20961 24-402): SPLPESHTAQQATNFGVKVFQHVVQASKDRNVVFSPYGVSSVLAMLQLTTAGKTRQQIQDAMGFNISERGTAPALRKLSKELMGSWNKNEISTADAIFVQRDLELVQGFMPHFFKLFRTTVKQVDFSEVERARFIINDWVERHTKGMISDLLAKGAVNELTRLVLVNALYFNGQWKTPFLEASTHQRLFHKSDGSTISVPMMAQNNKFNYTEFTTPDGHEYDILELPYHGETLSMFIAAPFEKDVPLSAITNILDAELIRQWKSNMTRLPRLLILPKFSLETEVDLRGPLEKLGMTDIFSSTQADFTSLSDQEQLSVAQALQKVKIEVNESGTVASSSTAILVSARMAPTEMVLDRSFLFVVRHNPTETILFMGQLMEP
Nature of the assay: Test Example 3: rat PAI-1 inhibitory activity (as Test Example 2 with rat PAI-1). The assay is classed as biochemical. The note with it: for inhibition at 10 µM: read-out: Inhibition Rate of PAI-1 Activity (%); for pIC50: rat PAI-1, calculated from the inhibition rates.

The next assay addresses T2, recombinant human PAI-1 (Homo sapiens, UniProt P05121).
T2 construct: purchased Molecular Innovations, Inc
Nature of the assay: Test Example 2: human PAI-1 inhibitory activity (tPA fluorogenic substrate, pH 7.4 HEPES buffer). Format: biochemical. To be noted: for pIC50: human PAI-1, calculated from the inhibition rates; for inhibition at 3 µM: read-out: Inhibition Rate of PAI-1 Activity (%). The method, then: 0.1 M HEPES, 0.1 M NaCl. 1 mM EDTA. 0.1% Polyethylene glycol 8,000 (Hampton Research Corporation),
2 mM Dimethyldecylphoshine oxide [Apo-10] (Fluka Corporation)

T2 sequence (P05121 24-402): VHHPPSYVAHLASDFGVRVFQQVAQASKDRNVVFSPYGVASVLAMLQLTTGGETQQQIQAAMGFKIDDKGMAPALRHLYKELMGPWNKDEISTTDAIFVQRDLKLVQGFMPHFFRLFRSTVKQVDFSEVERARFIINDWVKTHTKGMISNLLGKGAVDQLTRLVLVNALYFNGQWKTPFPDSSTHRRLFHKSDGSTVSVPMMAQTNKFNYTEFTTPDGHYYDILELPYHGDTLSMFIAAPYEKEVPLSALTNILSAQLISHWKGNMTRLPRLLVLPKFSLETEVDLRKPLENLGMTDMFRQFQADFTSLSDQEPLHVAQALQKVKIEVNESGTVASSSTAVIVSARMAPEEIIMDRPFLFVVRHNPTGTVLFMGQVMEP
Experimental for recombinant rat PAI-1: To this solution, 6 μl of 80 nM recombinant human PAI-1 (Molecular Innovations, Inc.) solution prepared with Tris buffer was added, and the plate was incubated for 5 minutes at room temperature. Furthermore, 30 μl of 800 IU/ml two-chain tPA (Activity Standard; American diagnostica, inc.) prepared with Tris buffer was added, and the mixed solution was incubated for 15 minutes at room temperature. Then, 30 μl of 400 μM fluorogenic substrate (Pyr-Gly-Arg-MCA; Peptide Institute, Inc.) for tPA prepared with Tris buffer was added and reacted for 30 minutes at room temperature.

The term inhibition denotes the relative decrease from the control value, in per cent. Regarding `CC(C)(C)c1ccc(Oc2ccc(-c3ccc(OC(F)(F)F)cc3)cc2CCC(=O)O)cc1` [Compound 13], on recombinant rat PAI-1, the inhibition at 10 µM was more than 99%.

As usually defined, the pIC50 is −log10 of the IC50, conventionally taken in molar units. With `CC(C)(C)c1ccc(COc2cc(-c3ccc(OC(F)(F)F)cc3)ccc2CCC(=O)O)cc1` [Compound 76], the pIC50 is 5.94 on recombinant human PAI-1 and 5.54 on recombinant rat PAI-1.

Turning to `CC(C)(C)c1ccc(COc2cc(Oc3ccc(OC(F)(F)F)cc3)ccc2CCC(=O)O)cc1` [Compound 78], the results for the pIC50 at recombinant human PAI-1 and at recombinant rat PAI-1 were 5.86 and 5.63, respectively.

For the molecule `CC(C)(C)c1ccc(Oc2cc(-c3ccc(OC(F)(F)F)cc3)ccc2CCC(=O)O)cc1` [Compound 80], the pIC50 on recombinant human PAI-1 is 5.97; on recombinant rat PAI-1 it was 5.66.

Turning to `CC(C)(C)c1ccc(COc2cccc(Oc3ccc(OC(F)(F)F)cc3)c2CCC(=O)O)cc1` [Compound 86], the pIC50 at recombinant human PAI-1 was 5.81; at recombinant rat PAI-1 it was 5.28.

`CC(C)(C)c1ccc(COc2c(CCC(=O)O)cccc2-c2ccc(OC(F)(F)F)cc2)cc1` [Compound 88]: the pIC50 at recombinant human PAI-1 is 5.88; on recombinant rat PAI-1 it was 5.49.

`CC(C)(C)c1ccc(Oc2cc(Oc3ccc(OC(F)(F)F)cc3)ccc2CCC(=O)O)cc1` [Compound 90]: the pIC50 at recombinant human PAI-1 is 5.87; at recombinant rat PAI-1, 5.58.

With `CC(C)(C)c1ccc(Oc2cccc(-c3ccc(OC(F)(F)F)cc3)c2CCC(=O)O)cc1` [Compound 94], the pIC50 on recombinant human PAI-1 was 5.87; on recombinant rat PAI-1, 5.50.

On to `CC(C)(C)c1ccc(COc2ccc(Oc3ccc(OC(F)(F)F)cc3)cc2CCC(=O)O)cc1` [Compound 96], for which the figures for the pIC50 on recombinant human PAI-1 and on recombinant rat PAI-1 were 5.88 and 5.54, respectively.

Take `O=C(O)CCc1c(Oc2ccc(OC(F)(F)F)cc2)cccc1Oc1ccc(OC(F)(F)F)cc1` [Compound 98]: the values for the pIC50 on recombinant human PAI-1 and on recombinant rat PAI-1 were 5.81 and 5.45, respectively.

Consider `CC(C)(C)c1ccc(Oc2ccc(Oc3ccc(OC(F)(F)F)cc3)cc2CCC(=O)O)cc1` [Compound 100], for which the figures for the pIC50 at recombinant human PAI-1 and on recombinant rat PAI-1 were 5.87 and 5.64, respectively.

For `CC(C)(Oc1cc(-c2ccc(OC(F)(F)F)cc2)ccc1OCc1ccc(C(C)(C)C)cc1)C(=O)O` [Compound 106], the pIC50 at recombinant human PAI-1 is 5.94; at recombinant rat PAI-1, 5.77. In addition, the inhibition at 10 µM on recombinant rat PAI-1 was more than 99%.

In the case of `CC(C)(C)c1ccc(Oc2cc(-c3ccc(OC(F)(F)F)cc3)ccc2OCC(=O)O)cc1` [Compound 112], the pIC50 at recombinant human PAI-1 is 6.10; on recombinant rat PAI-1 it was 5.70.

`CC(C)(C)c1ccc(Oc2cccc(-c3ccc(OC(F)(F)F)cc3)c2OCC(=O)O)cc1` [Compound 113]: the pIC50 was 5.76 on recombinant human PAI-1 and 5.43 on recombinant rat PAI-1.

Take `CC(C)(Oc1cc(-c2ccc(OC(F)(F)F)cc2)ccc1OCCCCc1ccccc1)C(=O)O` [Compound 116]: the figures for the pIC50 on recombinant human PAI-1 and on recombinant rat PAI-1 were 5.78 and 5.49, respectively.

In the case of `CC(C)(C)c1ccc(COc2c(OCC(=O)O)cccc2-c2ccc(OC(F)(F)F)cc2)cc1` [Compound 117], the figures for the pIC50 at recombinant human PAI-1 and on recombinant rat PAI-1 were 5.98 and 5.61, respectively. In addition, the inhibition at 3 µM on recombinant human PAI-1 is more than 99%.

With `CC(C)(Oc1cccc(-c2ccc(OC(F)(F)F)cc2)c1OCc1ccc(C(C)(C)C)cc1)C(=O)O` [Compound 118], at recombinant human PAI-1, the pIC50 is 6.00 and the inhibition at 3 µM was more than 99%. The pIC50 on recombinant rat PAI-1 is 5.72.

As to `CCCCC(c1ccc(C(C)(C)C)cc1)N(C(=O)C(=O)O)c1ccc(-c2ccc(OC(F)(F)F)cc2)cc1` (stereo not drawn) [Compound 221], at recombinant human PAI-1, the pIC50 is 6.03 and the inhibition at 3 µM was more than 99%. Moreover, the negative-log IC50 (pIC50) at recombinant rat PAI-1 is 5.90.
